Activity calls are given as the source filed them. No cut-off for these calls is given here.
Tests used:
MDA-MB-231 = assay: Growth inhibition of human MDA-MB-231 cells after 72 hrs by MTT assay; format: cell-based; details: MDA-MB-231, 72 h
[1] = Retention time of the compound at 200 uM in presence of 50 mM GSH by HPLC analysis
Homo sapiens = species: Homo sapiens; assay: Inhibition of beta-tubulin polymerization in human MDA-MB-231 cells at 50 nM after 1 hr by NucBlue staining based immunofluorescence microscopic assay; format: cell-based

SMILES | GI50 (MDA-MB-231) [nM] | Retention time [1] [min] | inhibition (Homo sapiens)
COc1ccc(/C=C\c2cc(OC)c(OC)c(OC)c2)cc1O [COMBRETASTATIN A4] | 2.81 | 6.8 | Active
N#CC(C#N)=C1C=C(/C=C/c2ccc(N)cc2)Oc2ccccc21 | – | 8.6 | –

From ChEMBL document CHEMBL3997847, “Development of a novel near-infrared fluorescent theranostic combretastain A-4 analogue, YK-5-252, to target triple negative breast cancer” (Bioorg Med Chem, 2017)
